From US9856279B2 (AGIOS PHARMACEUTICALS, INC, priority 2011, dated 2018) come the findings set out here.

Where two headings read alike, the source gives them in different places.

One test addresses IDH1 R132H (Homo sapiens, UniProt O75874, R132H). As to the kind of experiment: Assay for IDH1 R132H inhibitors (NADPH/aKG, resazurin detection). Format: biochemical. The settings on record: enzyme assay of Example 12; read-out: IDH1R132H IC50. A digest of the protocol: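 Read-out is resorufin fluorescence (Ex544/Em590) 5 min after adding a 30 μM resazurin detection mix. Before that, mutant enzyme (0.2 μg/ml in its mix) ran 50 min at room temperature with compound, 8 uM NADPH and 2 mM aKG (mix levels) in Tris pH 7.5 with NaCl, MgCl2, BSA.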
A general note: The colour change of resazurin is a common sign of viable cells or microbes.

A further test concerns HT1080 cells. In words: Cellular assay for IDH1m inhibitors: inhibition of 2-HG production (LC-MS, 48 hours) in HT1080 cells. Format: cell-based. Conditions: Homo sapiens, HT-1080; inhibition of 2-HG production, HT1080 cells; read-out: HT1080 IC50. In a few lines: (§1)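 5000 cells/well, DMEM + 10% FBS, overnight 37 °C/5% CO2; compound added (0.2% DMSO final), 48 h; medium sampled for LC-MS 2-HG; IC50 vs DMSO control.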

In a further test the test system is U87MG cells. In words: Cellular assay for IDH1m inhibitors: inhibition of 2-HG production (LC-MS, 48 hours) in U87MG cells. The format is cell-based. The settings on record: inhibition of 2-HG production, U87R132H cells, read-out: U87R132H IC50. A digest of the protocol:
as §1

Sequence of IDH1 R132H (O75874 whole entry R132H): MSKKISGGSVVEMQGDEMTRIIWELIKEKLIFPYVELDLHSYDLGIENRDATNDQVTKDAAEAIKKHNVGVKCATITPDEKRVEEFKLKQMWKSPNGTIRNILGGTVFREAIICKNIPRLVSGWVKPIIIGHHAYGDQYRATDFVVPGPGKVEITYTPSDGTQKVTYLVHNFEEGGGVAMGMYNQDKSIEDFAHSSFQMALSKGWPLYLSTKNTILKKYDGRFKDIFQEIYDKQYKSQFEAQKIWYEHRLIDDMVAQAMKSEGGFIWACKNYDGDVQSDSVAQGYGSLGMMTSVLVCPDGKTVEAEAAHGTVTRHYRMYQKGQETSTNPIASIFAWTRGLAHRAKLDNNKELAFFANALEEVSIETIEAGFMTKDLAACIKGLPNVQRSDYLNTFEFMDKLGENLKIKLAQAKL

Usually IC50 stands for the midpoint of a concentration-inhibition curve. Turning to `COCCC(=O)N1CCN(c2nc(C(C)C)c(OCCNC(=O)OCc3ccccc3)cc2C#N)C[C@H]1C` [Compound 272, (R)-benzyl 2-(5-cyano-2-isopropyl-6-(4-(3-methoxypropanoyl)-3-methylpiperazin-1-yl)pyridin-3-yloxy)ethylcarbamate], the IC50 on IDH1 R132H is 500 to 1000 nM; with HT1080 cells, 1000 to 10000 nM; in the test on U87MG cells (Homo sapiens, U-87 MG), 1000 to 10000 nM.
On to `C=Cc1cc(-c2cc(C#N)c(N3CCN(C(=O)CCO)[C@H](C4CC4)C3)nc2C2CC2)c2ccncc2n1` [Compound 688, (R)-6-cyclopropyl-2-(3-cyclopropyl-4-(3-hydroxypropanoyl)piperazin-1-yl)-5-(2-vinyl-1,7-naphthyridin-4-yl)nicotinonitrile], for which the IC50 is < 500 nM on IDH1 R132H; < 500 nM with HT1080 cells; < 500 nM with U87MG cells (Homo sapiens, U-87 MG).
As for `C=C(C)C(=O)Nc1cccc(-c2cc(C#N)c(N3CCN(C(=O)CCOC)[C@H](C)C3)nc2C2CC2)c1` [Compound 449, (R)—N-(3-(5-cyano-2-cyclopropyl-6-(4-(3-methoxypropanoyl)-3-methylpiperazin-1-yl)pyridin-3-yl)phenyl)methacrylamide], the IC50 at IDH1 R132H lay within 500 to 1000 nM; in the test with HT1080 cells, 1000 to 10000 nM; in the test on U87MG cells (Homo sapiens, U-87 MG) it was 1000 to 10000 nM.
For `COCCC(=O)N1CCN(c2nc(C3CC3)c(-c3cccc(NC(=O)[C@@H](C)Cl)c3)cc2C#N)C[C@H]1C` [Compound 462, (R)-2-chloro-N-(3-(5-cyano-2-cyclopropyl-6-((R)-4-(3-methoxypropanoyl)-3-methylpiperazin-1-yl)pyridin-3-yl)phenyl)propanamide], the IC50 on IDH1 R132H lay within 500 to 1000 nM; with HT1080 cells, 1000 to 10000 nM; with U87MG cells (Homo sapiens, U-87 MG) it was 1000 to 10000 nM.
Consider `C=Cc1ccnc(Nc2cc(C#N)c(N3CCN(C(=O)CCOC)[C@H](C4CC4)C3)nc2C2CC2)c1` [Compound 706, (R)-6-cyclopropyl-2-(3-cyclopropyl-4-(3-methoxypropanoyl)piperazin-1-yl)-5-((4-vinylpyridin-2-yl)amino)nicotinonitrile], for which the IC50 is < 500 nM at IDH1 R132H; < 500 nM in the test on HT1080 cells; < 500 nM with U87MG cells (Homo sapiens, U-87 MG).
For `C=Cc1nc(-c2cc(C#N)c(N3CCN(C(=O)CCO)[C@H](C4CC4)C3)nc2C2CC2)c2ccccc2n1` [Compound 670, (R)-6-cyclopropyl-2-(3-cyclopropyl-4-(3-hydroxypropanoyl)piperazin-1-yl)-5-(2-vinylquinazolin-4-yl)nicotinonitrile], the IC50 on IDH1 R132H is < 500 nM; in the test on HT1080 cells it was < 500 nM; in the test with U87MG cells (Homo sapiens, U-87 MG), < 500 nM.
Regarding `C=Cc1cc(-c2cc(C#N)c(N3CCN(C(=O)CCOC)[C@H](C)C3)nc2C2CC2)cnn1` [Compound 615, (R)-6-cyclopropyl-2-(4-(3-methoxypropanoyl)-3-methylpiperazin-1-yl)-5-(6-vinylpyridazin-4-yl)nicotinonitrile], the IC50 on IDH1 R132H is < 500 nM; in the test with HT1080 cells, < 500 nM; with U87MG cells (Homo sapiens, U-87 MG), < 500 nM.
On to `C=CC(=O)N1CCC=C(c2c(C3CC3)nc(N3CCN(C(=O)CCOC)[C@H](C4CC4)C3)c(C#N)c2C)C1` [Compound 745, (R)-5-(1-acryloyl-1,2,5,6-tetrahydropyridin-3-yl)-6-cyclopropyl-2-(3-cyclopropyl-4-(3-methoxypropanoyl)piperazin-1-yl)-4-methylnicotinonitrile], for which the IC50 is < 500 nM on IDH1 R132H; < 500 nM with HT1080 cells; < 500 nM with U87MG cells (Homo sapiens, U-87 MG).
For `C=Cc1cc(-c2cc(C#N)c(N3CCN(C(=O)CCCO)[C@H](C4CC4)C3)nc2C2CC2)ccn1` [Compound 753, (R)-2-cyclopropyl-6-(3-cyclopropyl-4-(4-hydroxybutanoyl)piperazin-1-yl)-2′-vinyl-3,4′-bipyridine-5-carbonitrile], the IC50 on IDH1 R132H is < 500 nM; in the test with HT1080 cells, < 500 nM; in the test with U87MG cells (Homo sapiens, U-87 MG), < 500 nM.
As for `N#Cc1cc(-c2cccc3cnccc23)c(C2CC2)nc1N1CCN(C(=O)c2ccoc2)[C@H](C2CC2)C1` [Compound 488, (R)-6-cyclopropyl-2-(3-cyclopropyl-4-(furan-3-carbonyl)piperazin-1-yl)-5-(isoquinolin-5-yl)nicotinonitrile], the IC50 on IDH1 R132H was < 500 nM; in the test with HT1080 cells, < 500 nM; in the test on U87MG cells (Homo sapiens, U-87 MG), 500 to 1000 nM.
With `C=Cc1ccnc(Nc2cc(C#N)c(N3CCN(C(=O)CCC4CCO4)[C@H](C4CC4)C3)nc2C2CC2)c1` (stereo partly drawn) [Compound 812, 6-cyclopropyl-2-((3R)-3-cyclopropyl-4-(3-(oxetan-2-yl)propanoyl)piperazin-1-yl)-5-((4-vinylpyridin-2-yl)amino)nicotinonitrile], the IC50 at IDH1 R132H is < 500 nM; in the test on HT1080 cells, < 500 nM; with U87MG cells (Homo sapiens, U-87 MG), < 500 nM.
Regarding `C=Cc1cc(-c2c(C3CC3)nc(N3CCN(C(=O)CCOC)[C@H](C4CC4)C3)c(C#N)c2C)ccn1` [Compound 558, (R)-2-cyclopropyl-6-(3-cyclopropyl-4-(3-methoxypropanoyl)piperazin-1-yl)-4-methyl-2′-vinyl-3,4′-bipyridine-5-carbonitrile], the IC50 on IDH1 R132H is < 500 nM; in the test on HT1080 cells, < 500 nM; with U87MG cells (Homo sapiens, U-87 MG), < 500 nM.
Regarding `C=Cc1ccnc(Nc2cc(C#N)c(N3CCN(C(=O)CCO)[C@H](C4CC4)C3)nc2C2CC2)c1` [Compound 756, (R)-6-cyclopropyl-2-(3-cyclopropyl-4-(3-hydroxypropanoyl)piperazin-1-yl)-5-((4-vinylpyridin-2-yl)amino)nicotinonitrile], the IC50 is < 500 nM at IDH1 R132H; < 500 nM in the test with HT1080 cells; < 500 nM with U87MG cells (Homo sapiens, U-87 MG).
Consider `C=Cc1cc(-c2cc(C#N)c(N3CCN(C(=O)CCO)[C@H](C)C3)nc2C2CC2)c2ccncc2n1` [Compound 609, (R)-6-cyclopropyl-2-(4-(3-hydroxypropanoyl)-3-methylpiperazin-1-yl)-5-(2-vinyl-1,7-naphthyridin-4-yl)nicotinonitrile], for which the IC50 is < 500 nM on IDH1 R132H; < 500 nM in the test with HT1080 cells; < 500 nM in the test on U87MG cells (Homo sapiens, U-87 MG).
For `C=Cc1cc(-c2c(C3CC3)nc(N3CCN(C(=O)CCC4CCO4)[C@H](C4CC4)C3)c(C#N)c2C)ccn1` (stereo partly drawn) [Compound 803, 2-cyclopropyl-6-((3R)-3-cyclopropyl-4-(3-(oxetan-2-yl)propanoyl)piperazin-1-yl)-4-methyl-2′-vinyl-[3,4′-bipyridine]-5-carbonitrile], the IC50 was < 500 nM at IDH1 R132H; < 500 nM in the test on HT1080 cells; < 500 nM with U87MG cells (Homo sapiens, U-87 MG).
Take `C=CC(=O)N1CCC=C(c2cc(C#N)c(N3CCN(C(=O)COC)[C@H](C4CC4)C3)nc2C2CC2)C1` [Compound 728, (R)-5-(1-acryloyl-1,2,5,6-tetrahydropyridin-3-yl)-6-cyclopropyl-2-(3-cyclopropyl-4-(2-methoxyacetyl)piperazin-1-yl)nicotinonitrile]: the IC50 was < 500 nM on IDH1 R132H; < 500 nM in the test on HT1080 cells; < 500 nM in the test with U87MG cells (Homo sapiens, U-87 MG).
Take `C=Cc1ccnc(Nc2cc(C#N)c(N3CCN(C(=O)CCO)[C@H](C)C3)nc2C2CC2)c1` [Compound 707, (R)-6-cyclopropyl-2-(4-(3-hydroxypropanoyl)-3-methylpiperazin-1-yl)-5-((4-vinylpyridin-2-yl)amino)nicotinonitrile]: the IC50 was < 500 nM on IDH1 R132H; < 500 nM with HT1080 cells; < 500 nM in the test on U87MG cells (Homo sapiens, U-87 MG).
For `C=Cc1ncc2c(-c3cc(C#N)c(N4CCN(C(=O)CCO)[C@H](C5CC5)C4)nc3C3CC3)cccc2n1` [Compound 737], the IC50 is < 500 nM at IDH1 R132H, 500 to 1000 nM in the test on HT1080 cells and 500 to 1000 nM with U87MG cells.
Turning to `COCCC(=O)N1CCN(c2nc(C3CC3)c(-c3cccc(NS(C)(=O)=O)c3)c(C)c2C#N)C[C@H]1C` [Compound 350, (R)—N-(3-{5-cyano-2-cyclopropyl-6-[4-(3-methoxy-propionyl)-3-methyl-piperazin-1-yl]-4-methyl-pyridin-3-yl}-phenyl)-methane sulfonamide], the IC50 on IDH1 R132H is < 500 nM; with HT1080 cells, 1000 to 10000 nM; in the test on U87MG cells (Homo sapiens, U-87 MG), 500 to 1000 nM.
The matching figures for `COCCC(=O)N1CCN(c2nc(C3CC3)c(OCc3ccccn3)cc2C#N)C[C@H]1C` [Compound 279, (R)-6-cyclopropyl-2-(4-(3-methoxypropanoyl)-3-methylpiperazin-1-yl)-5-(pyridin-2-ylmethoxy)nicotinonitrile]: 500 to 1000 nM, 1000 to 10000 nM and 1000 to 10000 nM.
The corresponding values for `COCCC(=O)N1CCN(c2nc(C3CC3)c(-c3ccnc4ccccc34)cc2C#N)C[C@H]1C` [Compound 315, (R)-6-cyclopropyl-2-(4-(3-methoxypropanoyl)-3-methylpiperazin-1-yl)-5-(quinolin-4-yl)nicotinonitrile] are < 500 nM, < 500 nM and 500 to 1000 nM.
The matching figures for `C=Cc1cc(-c2cc(C#N)c(N3CCN(C(=O)CCOC)[C@H](C(C)C)C3)nc2C2CC2)ncn1` [Compound 639, (R)-6-cyclopropyl-2-(3-isopropyl-4-(3-methoxypropanoyl)piperazin-1-yl)-5-(6-vinylpyrimidin-4-yl)nicotinonitrile]: < 500 nM, < 500 nM and < 500 nM.
For the molecule `C=Cc1cnc2c(-c3cc(C#N)c(N4CCN(C(=O)CCO)[C@H](C5CC5)C4)nc3C3CC3)cccc2n1` [Compound 657, (R)-6-cyclopropyl-2-(3-cyclopropyl-4-(3-hydroxypropanoyl)piperazin-1-yl)-5-(2-vinylquinoxalin-5-yl)nicotinonitrile], the IC50 on IDH1 R132H is < 500 nM; in the test with HT1080 cells, < 500 nM; with U87MG cells (Homo sapiens, U-87 MG), < 500 nM.
